According to patent US20240002391A1, “4-ALKOXYPYRROLO[2,1-F][1,2,4]TRIAZINES AND PREPARATION AND USES THEREOF” (BioSplice Therapeutics, Inc., priority 2022, published 2024):

Molecular target: recombinant DYRK1A kinase (Homo sapiens (Human), UniProt Q13627)
Assay: DYRK1A kinase assay (Ser/Thr 18 peptide Z-lyte FRET)
Format: biochemical
Details: DYRK1A kinase activity, Z-lyte Ser/Thr 18 peptide, 15 μM ATP; method text calls the value IC50; read-out: EC50 (the source's name)
Method in brief: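 Recombinant enzyme (0.25 μg/mL final) was incubated with 15 μM ATP, 4 μM Ser/Thr 18 peptide and compound (11-point 1:3 series from 10 μM) for 1 h at room temperature, in duplicate. Development reagent was added for 1 h, and coumarin/fluorescein emission ratio gave % phosphorylation; IC50 by non-linear regression.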

Row | IC50 [nM] | SMILES
1 | 28.2 | COc1nc(NC2CCN(C3CC(F)(F)C3)CC2)nn2ccc(-c3ccc4ncccc4c3)c12 [Compound 306, N-(1-(3,3-Difluorocyclobutyl)piperidin-4-yl)-4-methoxy-5-(quinolin-6-yl)pyrrolo[2,1-f][1,2,4]triazin-2-amine]
2 | 4.1 | COc1nc(N[C@H]2CCN(CCF)C[C@H]2F)nn2ccc(-c3ccc4ncccc4c3)c12 [Compound 314, N-((3R,4S)-3-Fluoro-1-(2-fluoroethyl)piperidin-4-yl)-4-methoxy-5-(quinolin-6-yl)pyrrolo[2,1-f][1,2,4]triazin-2-amine]
3 | 2.2 | COc1nc(N[C@@H]2CCN(C)CC2(F)F)nn2ccc(-c3ccc4ncccc4c3)c12 [Compound 319, (R)—N-(3,3-Difluoro-1-methylpiperidin-4-yl)-4-methoxy-5-(quinolin-6-yl)pyrrolo[2,1-f][1,2,4]triazin-2-amine]
4 | 8.2 | COc1nc(N[C@H]2CCN(C)CC2(F)F)nn2ccc(-c3ccc4ncccc4c3)c12 [Compound 320, (S)—N-(3,3-Difluoro-1-methylpiperidin-4-yl)-4-methoxy-5-(quinolin-6-yl)pyrrolo[2,1-f][1,2,4]triazin-2-amine]
5 | 2.1 | COc1nc(N[C@@H]2CCN(C3COC3)CC2(F)F)nn2ccc(-c3ccc4ncccc4c3)c12 [Compound 321, (R)—N-(3,3-Difluoro-1-(oxetan-3-yl)piperidin-4-yl)-4-methoxy-5-(quinolin-6-yl)pyrrolo[2,1-f][1,2,4]triazin-2-amine]
6 | 6.6 | COc1nc(N[C@H]2CCN(C3COC3)CC2(F)F)nn2ccc(-c3ccc4ncccc4c3)c12 [Compound 322, (S)—N-(3,3-Difluoro-1-(oxetan-3-yl)piperidin-4-yl)-4-methoxy-5-(quinolin-6-yl)pyrrolo[2,1-f][1,2,4]triazin-2-amine]
7 | 7.3 | COc1nc(NC2CCC3(CC2)COC3)nn2ccc(-c3ccc4ncccc4c3)c12 [Compound 326, 4-Methoxy-5-(quinolin-6-yl)-N-(2-oxaspiro[3.5]nonan-7-yl)pyrrolo[2,1-f][1,2,4]triazin-2-amine]
8 | 5.4 | COc1nc(N[C@H]2C[C@H](C(C)(C)O)C2)nn2ccc(-c3ccc4nccnc4c3)c12 [Compound 328, 2-(trans-3-((4-Methoxy-5-(quinoxalin-6-yl)pyrrolo[2,1-f][1,2,4]triazin-2-yl)amino)cyclobutyl)propan-2-ol]
9 | 2.3 | COc1nc(N[C@H]2C[C@](C)(O)C2)nn2ccc(-c3ccc4nccnc4c3)c12 [Compound 330, trans-3-((4-Methoxy-5-(quinoxalin-6-yl)pyrrolo[2,1-f][1,2,4]triazin-2-yl)amino)-1-methylcyclobutan-1-ol]
10 | 1.2 | [2H]C([2H])([2H])Oc1nc(N[C@H]2C[C@](C)(O)C2)nn2ccc(-c3ccc4nccnc4c3)c12 [Compound 331, trans-3-((4-(Methoxy-d3)-5-(quinoxalin-6-yl)pyrrolo[2,1-f][1,2,4]triazin-2-yl)amino)-1-methylcyclobutan-1-ol]
11 | 2.8 | COc1nc(N[C@H]2C[C@@](C)(N)C2)nn2ccc(-c3ccc4nccnc4c3)c12 [Compound 332, cis-N1-(4-Methoxy-5-(quinoxalin-6-yl)pyrrolo[2,1-f][1,2,4]triazin-2-yl)-3-methylcyclobutane-1,3-diamine]
12 | 1.1 | COc1nc(N[C@H]2C[C@@](C)(NC(C)=O)C2)nn2ccc(-c3ccc4nccnc4c3)c12 [Compound 333, N-(cis-3-((4-Methoxy-5-(quinoxalin-6-yl)pyrrolo[2,1-f][1,2,4]triazin-2-yl)amino)-1-methylcyclobutyl)acetamide]
13 | 0.9 | COc1nc(N[C@H]2C[C@](C)(NC(C)=O)C2)nn2ccc(-c3ccc4nccnc4c3)c12 [Compound 334, N-(trans-3-((4-Methoxy-5-(quinoxalin-6-yl)pyrrolo[2,1-f][1,2,4]triazin-2-yl)amino)-1-methylcyclobutyl)acetamide]
14 | 2 | CCC(=O)N[C@]1(C)C[C@H](Nc2nc(OC)c3c(-c4ccc5nccnc5c4)ccn3n2)C1 [Compound 335, N-(cis-3-((4-Methoxy-5-(quinoxalin-6-yl)pyrrolo[2,1-f][1,2,4]triazin-2-yl)amino)-1-methylcyclobutyl)propionamide]
15 | 1.3 | COCC(=O)N[C@]1(C)C[C@H](Nc2nc(OC)c3c(-c4ccc5nccnc5c4)ccn3n2)C1 [Compound 336, 2-Methoxy-N-(cis-3-((4-methoxy-5-(quinoxalin-6-yl)pyrrolo[2,1-f][1,2,4]triazin-2-yl)amino)-1-methylcyclobutyl)acetamide]
16 | 11.5 | COc1nc(N[C@H]2C[C@@](C)(NC(=O)OC(C)(C)C)C2)nn2ccc(-c3ccc4nccnc4c3)c12 [Compound 337, tert-Butyl (cis-3-((4-methoxy-5-(quinoxalin-6-yl)pyrrolo[2,1-f][1,2,4]triazin-2-yl)amino)-1-methylcyclobutyl)carbamate]
17 | 1.2 | CNC(=O)[C@]1(C)C[C@@H](Nc2nc(OC)c3c(-c4ccc5nccnc5c4)ccn3n2)C1 [Compound 338, trans-3-((4-Methoxy-5-(quinoxalin-6-yl)pyrrolo[2,1-f][1,2,4]triazin-2-yl)amino)-N,1-dimethylcyclobutane-1-carboxamide]
18 | 4.8 | COc1nc(N[C@H]2C[C@](C)(C(=O)N(C)C)C2)nn2ccc(-c3ccc4nccnc4c3)c12 [Compound 339, trans-3-((4-Methoxy-5-(quinoxalin-6-yl)pyrrolo[2,1-f][1,2,4]triazin-2-yl)amino)-N,N,1-trimethylcyclobutane-1-carboxamide]
19 | 9.3 | COc1nc(N[C@H]2CC[C@@H](C(C)(C)O)CC2)nn2ccc(-c3ccc4nccnc4c3)c12 [Compound 341, 2-(cis-4-((4-methoxy-5-(quinoxalin-6-yl)pyrrolo[2,1-f][1,2,4]triazin-2-yl)amino)cyclohexyl)propan-2-ol]
20 | 3.2 | COc1nc(N[C@H]2CC[C@H](C(C)(C)O)CC2)nn2ccc(-c3ccc4nccnc4c3)c12 [Compound 342, 2-(trans-4-((4-Methoxy-5-(quinoxalin-6-yl)pyrrolo[2,1-f][1,2,4]triazin-2-yl)amino)cyclohexyl)propan-2-ol]
21 | 0.7 | COc1nc(N[C@H]2CC[C@@H](OCCO)CC2)nn2ccc(-c3ccc4nccnc4c3)c12 [Compound 343, 2-((cis-4-((4-Methoxy-5-(quinoxalin-6-yl)pyrrolo[2,1-f][1,2,4]triazin-2-yl)amino)cyclohexyl)oxy)ethan-1-ol]
22 | 1.8 | COc1nc(N[C@H]2CC[C@H](NC(C)=O)CC2)nn2ccc(-c3ccc4nccnc4c3)c12 [Compound 344, N-(trans-4-((4-Methoxy-5-(quinoxalin-6-yl)pyrrolo[2,1-f][1,2,4]triazin-2-yl)amino)cyclohexyl)acetamide]
23 | 3.7 | COc1nc(N[C@H]2CC[C@@](C)(O)CC2)nn2ccc(-c3ccc4nccnc4c3)c12 [Compound 345, cis-4-((4-Methoxy-5-(quinoxalin-6-yl)pyrrolo[2,1-f][1,2,4]triazin-2-yl)amino)-1-methylcyclohexan-1-ol]

Row | SMILES | IC50 [nM]
24 | COc1nc(N[C@H]2C[C@@H](OCCO)C2)nn2ccc(-c3ccc4nccnc4c3)c12 [Compound 329, 2-(cis-3-((4-Methoxy-5-(quinoxalin-6-yl)pyrrolo[2,1-f][1,2,4]triazin-2-yl)amino)cyclobutoxy)ethan-1-ol] | 1.9
